Results taken from US6495336B1, “Oligopeptide derivatives for the electrochemical measurement of protease activity” (Pentapharm AG, priority 2001, dated 2002).

Assays:
thrombin = target: T1, thrombin (Homo sapiens, UniProt P00734); test: Measurement of the enzymic activity of thrombin in solution (amperometric hydrolysis of substrate); assay type: biochemical; settings: substrate c = 0.5 mmol, 1 NIH-U of thrombin, 400 mV, HEPES 50 mM pH 7.4, KCl 0.1 M, 25° C.
T1 construct: purchased Diagnotec Liestal 100-500
Protocol: 1) A Tacusell PGP201 potentiostat, software VM1, which maintains a constant potential difference between the measuring electrode and reference electrode, is used. The measuring cell used is a glass beaker with a capacity of 25 ml or 1 ml, which can receive the 3 electrodes.
2) A platinum wire with a surface area of 34 mm^2 or 3 mm^2 is used as measuring electrode.
3) A calomel electrode (SCE) is used as reference electrode at which the potentials are measured.
4) The auxiliary electrode consists of platinum wire and serves to ensure passage of the current.
5) The measured solution is stirred by a magnetic stirrer for homogenization.
Thrombin concentration: 0.5, 1.0, 2 NIH-U/ml
Buffer: HEPES buffer, 50 mM, pH 7.4, KCl, 0.1 M
For example a 0.5 mM solution of the substrate Tos-Gly-Pro-Arg 3-chloro-4-hydroxyanilide×AcOH in HEPES buffer is prepared, as is a stock solution of thrombin with 100 NIH-U/1 ml in distilled water. 1 ml of substrate solution (c=0.5 mmol) is introduced into a 1 ml measuring cell provided with 3 electrodes of the Tacusell PGP201 potentiostat, software VM1. A cycle is allowed to run potentiodynamically from −30 to 500 mV to record the zero value (10 min). For the measurement, 10 µl of thrombin solution (final concentration 1.0 NIH-U/ml) is placed in the measuring cell, […], after mixing for 30 sec, the current is recorded potentiostatically over a time of 10 min. The measurements are carried out as duplicate determination.
FIGS. 5, 6 and 7 (μA cm^2/min, T=0-5 min, at 400 mV) show the linear cleavage rates by means of 3 substrates with different electroactive groups at a thrombin concentration of 1 NIH-U and substrate concentration c=0.5 mmol: […]

[1] = Cyclic voltammogram of the substrate (electroactivity); assay type: physicochemical; settings: c=0.5 mM in HEPES buffer, pH=7.4, 0.1 M KCl; -30 to 600 mV; 1 ml cell, electrode 3 mm^2
Text: […] A measurement cycle can take place when the basic current affords sufficient accuracy. The basic current is subtracted from the measurement during the hydrolysis of a substrate or the recording of a profile of an electroactive compound.
2) Evaluation of the results: the currents recorded in the linearity range are, after subtraction of the basic current at the relevant potential, proportional to the concentration of the electroactive species during the hydrolysis. The liberated electroactive species, which is cleaved off by the substrate, is likewise proportional to the enzyme concentration employed.
3) A platinum electrode is used to record the cyclic voltammograms at concentrations of 0.25 mmol, 0.5 mmol and 1.0 mmol. HEPES, 50 mmol at pH 7.4, is used as buffer. FIGS. 1 and 2 show typical cyclic reversible plots for 4-amino-2-chlorophenol and 5-amino-8-hydroxyquinoline: recorded from −30 to 600 mV at 500 mV/min. These amperogenic substances preferably show a linear dependence of the current strength on the concentration at low potential in the region of 300 mV, with a high current strength. The system is in equilibrium in this case. A higher voltage of >400 mV is undesired because of interference with possible constituents in the blood, for example paracetamol. […]

Row | Standardization: current resulting from hydrolysis of the substrate with thrombin, per cm^2 of electrode surface area in one minute (thrombin) | Electroactivity of the uncleaved substrate at 400 mV [1] | Substance
1 | 3 μA/cm^2 of electrode | – | H-(D)-Chg-Gly-Arg 3-chloro-4-hydroxyanilide×2 TFA
2 | 2 μA/cm^2 of electrode | no electroactivity | Tos-Gly-Pro-Arg 3-chloro-4-hydroxyanilide×AcOH
3 | 0.5 μA/cm^2 of electrode | – | Z-gly-pro-arg 2-chloro-4-hydroxyanilide×HCl
